Test results reported in patent publication US7700576B2, “Pharmaceutical composition on basis of reverse transcriptase inhibitor and meldonium” (priority 2005, dated 2010).

Experiments:
myocardium = test system: myocardium; set-up: species or system mice; settings: mouse, in vivo, ip
Protocol: The cardiotoxic action of Zidovudine and Meldonium pharmaceutical compositions was investigated by introducing them into male mice of initial mass 15.69±1.56 g during a fortnight. Throughout the experiment, the animals were kept in standard laboratory conditions at temperature of 22±0.5° C. and 12 hours light/darkness cycle, being fed with standard laboratory animal food. For the control group (n=6), 10 ml of 0.9% NaCl aqueous solution was intraperitoneally introduced daily (1st and 12th group). In a series of experiments, the following solutions were administered intraperitoneally for animal trial groups (including 6 mice each) daily. On the 15th day of the trial, the animals were decapitated, hearts were taken out and placed into 10% formalin solution. For immuno-histochemical research, organs were fixed in paraffin, and preparations of 4 μm thickness were sliced which were tinged according to the avidin-biotin immuno-histochemical method by use of DAKO LSAB reagent kit.

cerebral cortex neurons = test: Cerebral cortex neuron degenerative transformation (molecular and external granule layers); format: in vivo, mice; settings: after a fortnight
Protocol: (§1) For this purpose in an experiment of analogous pattern, the experimental animals' neurological reactions were assessed after a fortnight. For this assessment, the common test of pain latent period in the tail compression model as well as the appraisal of cerebral cortex neuron degenerative transformation was made (molecular and external granule layers).

[1] = mouse, in vivo
Protocol: as §1

[2] = oral introduction; cited from earlier work
mice = settings: p.o. for mice; cited from earlier work

Increase in degenerated neurons of the cerebral cortex as compared with the control (cerebral cortex neurons) [fold] | Algesia (pain latent period, tail compression) [1] | Compound | Histological changes of heart tissue (myocardium) | bioavailability [2] | toxicity (mice)
3 | provokes significant algesia | Cc1cn([C@H]2C[C@H](N=[N+]=[N-])[C@@H](CO)O2)c(=O)[nH]c1=O [AZT, 3′-Azido-3′-deoxythymidine] | induces perivascular oedema, degeneration of myocardium adipose tissue and infiltration with leucocytes | – | –
3 | provokes significant algesia | Nc1ccn([C@@H]2CS[C@H](CO)O2)c(=O)n1 [Lamivudine, (2R-cis)-4-Amino-1-[2-(hydroxymethyl)-1,3-oxathiolan-5-yl]-2(IH)-pyrimidinone] | – | – | –
– | – | C[N+](C)(C)NCCC(=O)[O-] [Meldonium, 3-(2,2,2-Trimethylhydrazinium) propionate] | – | very high | more than 25,000 mg/kg
3 | provokes significant algesia | Cc1cn([C@H]2C=C[C@@H](CO)O2)c(=O)[nH]c1=O [Stavudine, 2′,3′-Didehydro-3′-deoxythymidine] | induces perivascular oedema, degeneration of myocardium adipose tissue and infiltration with leucocytes | – | –
